Reference: paper PMC8533149 (Biomolecules, 2021)

Tested on: HIV-1 LTR-III G-quadruplex (FAM/TAMRA-labeled LTR-III)
Assay: FRET melting assay, LTR-III G4
Format: binding
Conditions: Table S1 primary screening, ligand:ODN 50:1, singlicate
In short: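 Melting is followed by FAM fluorescence (ex 495/em 520 nm) while heating at 1 °C/min from 30 to 95 °C. Labelled ODN at 0.5 μM, pre-annealed in 10 mM Li cacodylate, 100 mM KCl, pH 7.4, mixed with ligand at 50:1 (25 μM), or 20:1 and 2:1 for titration. ΔTm is relative to the 0.25% DMSO buffer control.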

Row | SMILES | LTR-III ΔTm [°C]
1 | CSC1=NC(=Cc2ccc(O)cc2)C(=O)N1C [SA 581] | 1
2 | CC1=NC(=Cc2ccc3cc(N(C)C)ccc3c2)C(=O)N1C [X 001] | -0.5
3 | COc1ccc(N)cc1C=C1N=C(C)N(C)C1=O [ZS 62] | 0
4 | COC(=O)c1ccc(C(N)=C2N=C(C)N(C)C2=O)cc1 [ZS 199] | -0.4
5 | CC(C)CCC1=NC(=Cc2ccc(O)cc2)C(=O)N1 [M 803] | -0.1
6 | COc1ccc(OC)c(C=C2N=C(C=Cc3cc(Br)c(O)c(Br)c3)N(C)C2=O)c1 [N 851A] | 1.4
7 | CCCC1=NC(=CN(C)C)C(=O)N1C [M 1945.1] | -0.6
8 | CCC1=NC(=Cc2c[nH]c3ccccc23)C(=O)N1C [SV 14] | 0
9 | CC1=NC(=CC=Cc2ccc(O)cc2)C(=O)N1C [M 1378] | -0.7
10 | CNC(=O)C(=Cc1ccccc1)N=P(c1ccccc1)(c1ccccc1)c1ccccc1 [N 832] | -0.5
11 | CCC1=NC(=Cc2cc(C(C)(C)C)c(O)c(C(C)(C)C)c2)C(=O)N1C [AL 135.2] | -1.3
12 | CCC(=O)NC(=Cc1c[nH]c2cccc(C)c12)C(=O)NC [M 1979] | -0.1
13 | CC1=NC(=Cc2ccc3[nH]c(C)c(C)c3c2)C(=O)N1C [N 792] | 0.2
14 | CC1=NC(=Cc2ccc(N)c(O)c2)C(=O)N1C [X 5] | 0.9
15 | O=C1NC(=S)NC1=Cc1ccc(O)cc1 [M 2497] | 0
16 | CC(=O)Oc1ccc(C=C2N=C(C=C(OC(=O)c3ccc(C)cc3)c3ccc(C)cc3)N(C)C2=O)cc1 [M 202] | -0.6
17 | COc1cc(O)ccc1C=C1N=C(C)N(C)C1=O [N 865] | 0.8
18 | CC1=NC(=Cc2cc(Cl)c(O)c(Cl)c2)C(=O)N1C [N 892] | -1
19 | CC1=NC(=Cc2ccc(OCc3ccccc3)cc2)C(=O)N1C [X 7] | 0
20 | CCN(CC)c1ccc(C=C2N=C(C)N(CCCC(=O)O)C2=O)cc1 [M 820] | 0.1
21 | CCN(CC)c1ccc(C=C2N=C(C=Cc3ccc(OC)cc3)N(C)C2=O)c(B(F)F)c1 [M 1971a] | -0.3

Row | SMILES | LTR-III ΔTm [°C]
22 | O=C1NC(=S)SC1=Cc1cc(Cl)c(O)c(Cl)c1 [SAI 127] | -0.2
23 | CC1=NC(=Cc2ccc(O)c([N+](=O)[O-])c2)C(=O)N1C [M 2482] | -1.2
24 | CCN(CC)c1ccc(C=C2N=C(C)N(CCCCO)C2=O)cc1 [N 182] | -0.1
25 | CCN(CC)c1ccc(C=C2NC(=S)NC2=O)cc1 [AL 172] | -0.2
26 | O=C1C(=C2N=C3C=CC=CN3C2=O)N=C2C=CC=CN12 [N 817.2] | -0.1
27 | CCN(CC)c1ccc(C=C2N=C(C)N(C)C2=O)c(B(F)F)c1 [M 739] | -0.4
28 | CN1C(=O)C(=Cc2ccc(O)c(O)c2)N=C1C=Cc1ccccc1 [M 2499b] | 0.3
29 | CN1C(=O)C(=Cc2ccc(O)cc2)N=C1C=Cc1ccccc1O [ccA 15] | 0.5
30 | CNC(=O)C(N)C(O)c1ccc(OCc2ccccc2)cc1 (stereo not shown) [X 27] | -0.1
31 | CC1=NC(=Cc2ccco2)C(=O)N1C [M 1583.2] | -0.5
32 | COC(=O)c1ccc(C=C2N=C(C=Cc3ccc(OC)cc3)N(C)C2=O)cc1 [AI 116] | 0.8
33 | CC(C)CCC1=NC(=Cc2ccc(O)cc2)C(=O)N1C [GA 18] | -0.1
34 | CCN(CC)c1ccc(C=C2N=C(C=Cc3cc(Br)c(O)c(Br)c3)N(C)C2=O)cc1 [M 2368d] | 0.1
35 | CN1C(=O)C(=Cc2ccc(O)cc2)N=C1C=Cc1ccc(Br)cc1 [ccA 7] | 0.8
36 | CC1=NC(=Cc2cccc3ccccc23)C(=O)N1C [SV 51.12] | 0.4
37 | CC1=NC(=Cc2ccc(C#N)cc2)C(=O)N1C [SA 433] | -0.4
38 | CCC1=NC(=Cc2ccc(N(CC)CC)cc2)C(=O)N1C [M 747] | 0.6
39 | CC(C)OC(=O)c1noc(C(=O)NC2CCCCC2)c1-c1cccs1 [AL 25] | -0.1
40 | CN1C(=O)C(=Cc2ccncc2)N=C1C=Cc1ccncc1 [N 768] | 0.9
41 | CCN(CC)C(=O)Sc1ccc(C=C2N=C(c3ccccc3)N(C)C2=O)cc1 [M 2075] | 0.3
42 | COc1cc(O)ccc1/C=C1N=C(/C=C/c2cccs2)N(C)C\1=O [N 1039] | 1.1

Row | SMILES | LTR-III ΔTm [°C]
43 | CCOC(=O)CN1C(=O)C(=Cc2cc3c4c(c2)CCCN4CCC3)N=C1C [M 1343] | 0
44 | CNC(=O)C(=Cc1ccncc1)N=P(c1ccccc1)(c1ccccc1)c1ccccc1 [N 833] | -0.6
45 | CC(C)OC(=O)c1noc(C(=O)NCc2ccccc2)c1-c1ccc(O)cc1 [SA 345B] | -0.8
46 | CN1C(=O)C(=Cc2ccc(O)cc2)N=C1C=Cc1ccc(C(=O)O)cc1 [ccA 16] | 0.8
47 | CN1C(=O)CN2C(=O)C(=Cc3ccc(O)cc3)N=C2C1=O [SA 108] | -0.1
48 | CNC(=O)c1cc(/C=C2N=C(/C=C/c3cccs3)N(C)C\2=O)ccc1O [ccD 1] | 0.7
49 | Br.CC1=NC(=Cc2ccc(N(C)C)cc2)C(=O)N1CCN [M 1668] | 0.2
50 | COc1c(O)ccc(/C=C2\N=C(C)N(C)C2=O)c1O [N 1042] | 1.4
51 | CON1C(=O)C(=Cc2ccc(O)cc2)N=C1CCC(C)C [M 552] | 0
52 | CN1C(=O)C(=Cc2ccc(O)cc2O)N=C1C=Cc1cc(Br)c(O)c(Br)c1 [N 855] | 0.4
53 | CC(C)OC(=O)c1noc(C(=O)NCc2ccccc2)c1-c1cccc(C(F)(F)F)c1 [SA 344B] | -0.7
54 | CC(C)OC(=O)c1noc(=O)c(O)c1-c1ccccc1F [SA 305A] | -0.7
55 | CC1=NC(=Cc2ccc([N+](=O)[O-])cc2)C(=O)N1Cc1ccccc1 [ZS 143] | -0.9
56 | CNC(=O)c1onc(C(=O)OC(C)C)c1-c1ccccc1 [SA 325A] | -0.5
57 | CC1=NC(=Cc2cccs2)C(=O)N1C [M 1583.3] | 0.1
58 | O=C1/C(=C/c2ccncc2)N=C2C=CC=CN12 [N 817] | 0
59 | COc1cc(O)ccc1/C=C1N=C(/C=C/c2ccccc2)N(C)C\1=O [MID 145] | 0.9
60 | COc1cccc(C=C2N=C(C)N(CCNC(=O)OC(C)(C)C)C2=O)c1 [M 2026f] | -0.4
61 | COc1ccc(C=C2N=C3C(=O)NCCN3C2=O)cc1 [JL 06.1] | 0.1
62 | COc1ccc(C=C2N=C(C=C(O)c3ccc(Br)cc3)N(C)C2=O)cc1 [N 537] | -0.3
63 | CCOC(=O)/C=C/c1ccc(O[Si](c2ccccc2)(c2ccccc2)C(C)(C)C)cc1 [M 1352] | -0.5

Row | SMILES | LTR-III ΔTm [°C]
64 | CC1=NC(=Cc2c[nH]c3ccccc23)C(=O)N1C [GC 07] | -0.4
65 | COC(=O)c1noc(C(=O)N2CCOCC2)c1-c1ccc(OC)cc1 [SA 561E] | -0.7
66 | CCC(=O)Oc1ccc(C=C2N=C(CC)OC2=O)cc1 [M 292] | -0.6
67 | CC(C)OC(=O)c1noc(=O)c(O)c1-c1ccccc1 [SA 300A] | 0.1
68 | CN1C(=O)C(=Cc2cc(Br)c(O)c(Br)c2)N=C1C=Cc1ccncc1 [N 848.1] | -1.8
69 | CCC(=O)NC(=Cc1c[nH]c2ccccc12)C(=O)NC [SV 13] | -0.1
70 | CN1C(=O)C(=Cc2ccc(N(C)C)cc2)N=C1C=Cc1cc(Br)c(O)c(Br)c1 [M 2368c] | 0
71 | CC1=NC(=Cc2ccc(O)cc2)C(=O)N1CCCNC(=O)OC(C)(C)C [X 10] | -0.2
72 | O=C1NC(=S)SC1=Cc1ccc(O)cc1 [HBR] | -0.2
73 | COc1ccc(C=C2N=C3C(=O)NCCN3C2=O)cc1OC [JL 06.2] | 0.4
74 | COC(=O)c1noc(C(=O)NCc2ccccc2)c1-c1ccc(OC)cc1 [SA 561D] | -0.4
75 | O=C1NC(C=Cc2cc(Br)c(O)c(Br)c2)=NC1=Cc1ccc(O)cc1 [M 295] | -0.5
76 | CC1=NC(=Cc2cc(F)c(O)c(F)c2)C(=O)N1 [N 853] | -0.9
77 | CC1=NC(=Cc2ccc(N3CCCC3)cc2)C(=O)N1C [N 704] | -0.2
78 | CC1=NC(=Cc2ccncc2)C(=O)N1C [M 1998] | -0.4
79 | CN1C(=O)C(=Cc2ccc(O)cc2)N=C1C=Cc1ccc2cc(N(C)C)ccc2c1 [N 861] | 0
80 | CCN(CC)c1ccc(C=C2N=C(C)N(CCNC(=O)OC(C)(C)C)C2=O)cc1 [M 2026c] | 0.2
81 | CCOC(=O)CN1C(=O)C(=Cc2cccc([N+](=O)[O-])c2)N=C1C [SA 111] | -0.1
82 | COc1ccc(-c2c(C(=O)OC(C)C)noc2C(=O)NCc2ccccc2)cc1 [SA 341C] | -0.2
